Test results reported in paper PMC9225715, “Development of PD3 and PD3-B for PDEδ inhibition to modulate KRAS activity” (Journal of Enzyme Inhibition and Medicinal Chemistry, 2022).
Like-named read-outs stand apart in the source and are kept apart here.

Assays:
PDEδ [1] = biological target: T1, PDEδ (Homo sapiens, UniProt O43924); assay: Fluorescence polarisation (FP)-based binding assay
T1 construct: made in house; host or cells: E. coli BL21(DE3)
Procedure: To evaluate the binding affinities of PDs to PDEδ, we also carried out a fluorescence polarisation (FP)-based binding assay after incubation of PDs with PDEδ. […] In the presence of 0.5 µM PD compounds, the polarisation value (mP value) increased following treatment with purified PDEδ in a dose-dependent manner until treatment with excess PDEδ induced saturation of binding. Among the tested compounds, 8 compounds were selected for further evaluation and SAR analysis. The binding curves for the selected 8 compounds are shown with their Kd values in Supplemental Figure S3.
Figure 3. Binding affinities of PDs measured by fluorescence polarisation. (A) Representative binding curve of PDs (PD3) titrated with PDEδ. The FP value was measured in PBS buffer (pH 7.2) containing 8 concentrations (0, 0.5, 1, 2, 4, 8, 16 and 32 μM) of PDEδ mixed with 0.5 μM PDs. Ex: 440 nm, Em: 526 nm; (B) Kd value and half-life of each compound; (C, D) Kinetic trace of PD3 and PD7 in the competition assay. PD3 was shown as a compound with the longest retention time (slow dissociation), whereas PD7 was shown as a compound with the shortest retention time (fast dissociation). The half-life was obtained by a competition binding assay using excess deltarasin. The optimal concentration of PDEδ for the competition assay was determined using the Kd value and PD concentration (0.5 μM) for making more than 68% of the binding complex. Ex: 430 nm, Em: 520 nm. TEXT PRINTED IN THE PICTURE: (A) PD3: Best-fit values Bmax: 261.7; Best-fit values Kd: 0.4991; Std. Error Bmax: 17.98; Std. […] Error Bmax 17.98 (last digit 8 or 6) and Std. Error Kd 0.1956 (5 and 6 not certain) / Panels C and D: k and half-life are printed without a label of their own; assigned to PD3 and PD7 from the panel legends (PDEδ+PD3+Del, PDEδ+PD7+Del)
PDEδ was diluted to make a series of two-fold dilutions with a starting concentration of 32 µM. The diluted solution was mixed with PBS buffer [137 mM NaCl, 2.7 mM KCl, 10 mM Na2HPO4, 2 mM KH2PO4 (pH 7.2)] and then the mixture was loaded on a 96 well black plate (SPL life Science, Gyeonggi-do, Republic of Korea). Compounds were transferred to the wells of assay plate and the final concentration of compounds was fixed to 0.5 µM. After the addition of the compound, the assay plates were incubated for 2 h at 4 °C. FP values were detected by SpectraMax M5 microplate reader (Molecular Devices, San Jose, CA) at the maximum absorption and emission wavelengths of PD compounds in assay buffer. Kd values were determined by previously reported method.

PANC-1 cells = assay: Immunofluorescence staining of RAS localisation; type: cell-based, human; conditions: 18 h, anti-pan RAS antibody, PD3 10 µM, deltarasin 2, 5, 10 µM
Description: Finally, we investigated whether PD3 changes KRAS localisation by inhibiting the interaction of KRAS with PDEδ in human pancreatic cancer cells. PDEδ binds the farnesylated RAS proteins and stabilises them[19]. Therefore, PDEδ activity leads to the accumulation of RAS at the plasma membrane (PM); conversely, downmodulation of PDEδ enhances RAS diffusion in the cytoplasm. To confirm the effect of PD3 on the relocalization of RAS, we carried out immunofluorescence staining of PANC-1 cells with an anti-RAS antibody (Figure 6). […] Conversely, in the DMSO-treated control group, RAS was mainly localised in the PM of PANC-1 cells. […] It is supposed that PD3 can induce changes in RAS localisation from the plasma membrane by interrupting the protein–protein interaction of KRAS-PDEδ.
Figure 6. Immunofluorescence of PANC-1 cells with an anti-Pan-RAS antibody (red). DMSO was used as a negative control, and deltarasin was used as a positive control. Ex: 633 nm, Em: ≥638 nm. The scale bar represents 20 µm.
PANC-1 cells were seeded with cover slip in a 6-well cell culture plate (SPL life Science, Gyeonggi-do, Republic of Korea) and incubated for 24 h under 37 °C and 5% CO2 prior to the experiment. […] The fluorescence images were detected by confocal microscope (TCS-SP8 confocal laser scanning microscope, Leica, Germany). Fluorescence signal was obtained by excitation at 633 nm and emission at ≥638 nm.

PDEδ [2] = biological target: T1, PDEδ; assay: Fluorescence measurement after incubation with recombinant PDEδ; type: binding; conditions: 2 µM PD + 2 µM PDEδ, 20 mM Tris buffer pH 7.5, Ex 280 nm
Procedure: With the structural rationale for the binding to PDEδ from the molecular docking studies, we measured the fluorescence responses of the PDs after incubation with recombinant PDEδ proteins to confirm the binding of PDs to PDEδ. We envisioned that the hydrophobic environment of the prenyl binding pocket of PDEδ, as depicted in Figure 1(C), could enhance the fluorescent signal due to the solvatochromic characteristics of IQ scaffold. In addition, tryptophan residues near the binding site of PDEδ and the fluorophore of PDs could act as a fluorescence resonance energy transfer (FRET) pair. […] All recoded spectra of PDs are depicted in Supplemental Figure S1. To compare the binding abilities of PD derivatives to the target protein, same concentration (2 µM) of PD compound was treated and then fluorescence intensity was measured in Spectrofluorometer FP-6500.
The fluorescence changes were measured to determine the interaction between PD compounds and PDEδ protein. The fluorescence spectra were obtained under Tris buffer [20 mM Tris-HCl (pH 7.5), 100 mM NaCl] at 20 °C. The concentration of PDEδ was 2 µM. After the addition of 2 µM PD compound, the mixture was gently inverted 3 times and then incubated for 1 min. The emission spectra were recorded on Spectrofluorometer FP-6500 (JASCO, Tokyo, Japan) at Ex 280 nm. The band width was 3 nm for excitation and 5 nm for emission.

T1 sequence (O43924 whole entry): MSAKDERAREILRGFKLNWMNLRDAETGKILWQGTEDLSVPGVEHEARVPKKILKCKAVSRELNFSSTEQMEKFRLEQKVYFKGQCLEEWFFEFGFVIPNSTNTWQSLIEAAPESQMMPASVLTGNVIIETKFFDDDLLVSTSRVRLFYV

`Cc1ccc(-c2nc3ccccc3c3cc4ccccn4c23)cc1` [PD3, 6-(p-tolyl)indolizino[3,2-c]quinoline] was tested, and the Kd (PDEδ [1]; 0.5 µM PD titrated with PDEδ, PBS pH 7.2, mean ± SD of three independent experiments, read-out: Kd value) was 491 ± 12 nM, the Kd (PDEδ [1]; representative binding curve, Figure 3(A) inset, read-out: Best-fit values Kd) was 499 nM and the “RAS localisation at the plasma membrane (PM)” value (PANC-1 cells) was “red fluorescence was effectively reduced at the PM”. For the same compound, the “Fluorescence response upon incubation with PDEδ” value (PDEδ [2]) was “exceeded the maximum detection limit of Spectrofluorometer”.
